# Measured values from patent publication US20050070554A1, “Substituted heterocyclic compounds and methods of use” (Amgen Inc., priority 2003, published 2005).
# Where two headings read alike, the source gives them in different places.
# Target: T1, LCK (Homo sapiens, UniProt P06239)
# T1 construct: LCK KD GST (225-509); GST
# Experiment: LCK-Homogeneous Time Resolved Fluorescent (HTRF) Kinase Assay
# Assay type: biochemical
# In short: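 LCK phosphorylates biotinylated Gastrin peptide in the presence of ATP for 90 min in 50 mM HEPES pH 7.5, 50 mM NaCl, 20 mM MgCl, 5 mM MnCl, 2 mM DTT, 0.05% BSA. Reaction stopped with EDTA-containing detection reagent, then equilibrated 30 min before HTRF read.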
# [1] = read-out: activity in the LCK-HTRF Kinase Assay
# T1 sequence (P06239 225-509): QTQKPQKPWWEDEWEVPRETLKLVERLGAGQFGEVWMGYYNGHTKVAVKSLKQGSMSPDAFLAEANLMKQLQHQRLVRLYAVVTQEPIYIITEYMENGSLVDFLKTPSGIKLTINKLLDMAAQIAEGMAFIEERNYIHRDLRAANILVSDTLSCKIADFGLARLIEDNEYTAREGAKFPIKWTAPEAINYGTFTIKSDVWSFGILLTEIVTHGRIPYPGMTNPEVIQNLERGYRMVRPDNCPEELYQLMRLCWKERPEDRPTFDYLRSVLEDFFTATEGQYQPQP
IC50,IC50 [1],SMILES
< 1 µM,–,"Cc1cccc(C)c1-n1c(=O)c2cnc(Nc3ccc(OCCN4CCN(C)CC4)c(F)c3)nc2n2c3ccccc3nc12 [No. 38, 6-(2,6-dimethylphenyl)-2-((3-fluoro-4-((2-(4-methyl-1-piperazinyl)ethyl)oxy)phenyl)amino)-pyrimido[5′,4′:5,6]pyrimido[1,2-a]benzimidazol-5(6H)-one]"
–,< 1 µM,"Cc1cccc(C)c1-n1c(=O)c2cnc(Nc3ccc(N4CCN(C)CC4)cc3)nc2n2ccnc12 [No. 87, 6-(2,6-dimethylphenyl)-2-((4-(4-methyl-1-piperazinyl)phenyl)amino)imidazo[1,2-a]-pyrimido[5,4-e]pyrimidin-5(6H)-one]"
–,< 1 µM,"Cc1cccc(C)c1-n1c(=O)c2cnc(Nc3ccc(OCCN4CCN(C)CC4)cc3)nc2n2c3ccccc3nc12 [No. 34, 6-(2,6-dimethylphenyl)-2-((4-((2-(4-methyl-1-piperazinyl)ethyl)oxy)phenyl)amino)-pyrimido[5′,4′:5,6]pyrimido[1,2-a]benzimidazol-5(6H)-one]"
